Experimental data reported in BindingDB's records for doi:10.7270/Q2J67FB5 (Nmmlsc, 2007).

Biological target: T1, fMet-Leu-Phe receptor (Homo sapiens, UniProt P21462)
T1 sequence (P21462 whole entry): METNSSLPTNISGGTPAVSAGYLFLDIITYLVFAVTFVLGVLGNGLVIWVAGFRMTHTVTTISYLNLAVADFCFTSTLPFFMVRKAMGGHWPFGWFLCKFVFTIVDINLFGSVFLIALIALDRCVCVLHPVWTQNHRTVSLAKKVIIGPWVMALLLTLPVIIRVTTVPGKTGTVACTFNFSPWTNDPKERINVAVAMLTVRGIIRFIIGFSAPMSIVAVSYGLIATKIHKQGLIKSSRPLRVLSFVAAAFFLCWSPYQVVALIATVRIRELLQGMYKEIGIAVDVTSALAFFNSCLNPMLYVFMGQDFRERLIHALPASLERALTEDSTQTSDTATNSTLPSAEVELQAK
Test: FPR ligands, dose response (AID 519)

| Structure (SMILES) | IC50 [µM] |
| --- | --- |
| COc1cccc2cc(C(=O)C3C(=O)C(=O)N(Cc4ccco4)C3c3cccnc3)oc12 (stereo not given) [1-(2-furanylmethyl)-4-hydroxy-3-[(7-methoxy-2-benzofuranyl)-oxomethyl]-2-(3-pyridinyl)-2H-pyrrol-5-one] | > 66.7 |
| COCCN1C(=O)C(=O)C(C(=O)c2cccs2)C1c1ccccc1 (stereo not given) [1-(2-methoxyethyl)-4-oxidanyl-2-phenyl-3-thiophen-2-ylcarbonyl-2H-pyrrol-5-one] | > 66.7 |
| O=C1C(=O)N(CCN2CCOCC2)C(c2ccccc2)C1C(=O)c1cccs1 (stereo not given) [1-(2-morpholin-4-ylethyl)-4-oxidanyl-2-phenyl-3-thiophen-2-ylcarbonyl-2H-pyrrol-5-one] | > 66.7 |
| Cc1ccc(C(=O)C2C(=O)C(=O)N(CCCn3ccnc3)C2c2ccc(OC(C)C)cc2)o1 (stereo not given) [1-(3-imidazol-1-ylpropyl)-3-(5-methylfuran-2-yl)carbonyl-4-oxidanyl-2-(4-propan-2-yloxyphenyl)-2H-pyrrol-5-one] | > 66.7 |
| Cc1ccc(C(=O)C2C(=O)C(=O)N(Cc3ccccc3)C2c2cccnc2)o1 (stereo not given) [1-benzyl-3-hydroxy-4-[(5-methylfuran-2-yl)carbonyl]-5-(pyridin-3-yl)-2,5-dihydro-1H-pyrrol-2-one] | > 66.7 |
| COc1ccc(OC)c(C2C(C(=O)c3cccs3)C(=O)C(=O)N2c2cc(C)on2)c1 (stereo not given) [2-(2,5-dimethoxyphenyl)-1-(5-methyl-1,2-oxazol-3-yl)-4-oxidanyl-3-thiophen-2-ylcarbonyl-2H-pyrrol-5-one] | > 66.7 |
| O=C1C(=O)N(c2ncccn2)C(c2ccc(Cl)c(Cl)c2)C1C(=O)c1ccco1 (stereo not given) [2-(3,4-dichlorophenyl)-3-(furan-2-carbonyl)-4-hydroxy-1-pyrimidin-2-yl-2H-pyrrol-5-one] | > 66.7 |
| COc1ccc(C2C(C(=O)c3cccs3)C(=O)C(=O)N2c2nnc(C)s2)cc1OC (stereo not given) [2-(3,4-dimethoxyphenyl)-1-(5-methyl-1,3,4-thiadiazol-2-yl)-4-oxidanyl-3-thiophen-2-ylcarbonyl-2H-pyrrol-5-one] | > 66.7 |
| COc1ccc(C2C(C(=O)c3ccco3)C(=O)C(=O)N2Cc2cccnc2)cc1OC (stereo not given) [2-(3,4-dimethoxyphenyl)-3-(furan-2-carbonyl)-4-hydroxy-1-(pyridin-3-ylmethyl)-2H-pyrrol-5-one] | > 66.7 |
| O=C1C(=O)N(c2ncccn2)C(c2cccc(Cl)c2)C1C(=O)c1ccco1 (stereo not given) [2-(3-chlorophenyl)-3-(furan-2-carbonyl)-4-hydroxy-1-pyrimidin-2-yl-2H-pyrrol-5-one] | > 66.7 |
| CCOc1cc(C2C(C(=O)c3ccco3)C(=O)C(=O)N2CCc2ccccc2)ccc1O (stereo not given) [2-(3-ethoxy-4-hydroxyphenyl)-3-(furan-2-carbonyl)-4-hydroxy-1-(2-phenylethyl)-2H-pyrrol-5-one] | > 66.7 |
| COc1cc(C2C(C(=O)c3ccc(C)o3)C(=O)C(=O)N2Cc2cccnc2)ccc1O (stereo not given) [2-(3-methoxy-4-oxidanyl-phenyl)-3-(5-methylfuran-2-yl)carbonyl-4-oxidanyl-1-(pyridin-3-ylmethyl)-2H-pyrrol-5-one] | > 66.7 |
| Cc1nc(C)c(C(=O)C2C(=O)C(=O)N(CCCn3ccnc3)C2c2ccc(Cl)cc2)s1 (stereo not given) [2-(4-chlorophenyl)-3-(2,4-dimethyl-1,3-thiazole-5-carbonyl)-4-hydroxy-1-(3-imidazol-1-ylpropyl)-2H-pyrrol-5-one] | > 66.7 |
| O=C1C(=O)N(c2ncccn2)C(c2ccc(Cl)cc2)C1C(=O)c1ccco1 (stereo not given) [2-(4-chlorophenyl)-3-(furan-2-carbonyl)-4-hydroxy-1-pyrimidin-2-yl-2H-pyrrol-5-one] | > 66.7 |
| COC(=O)Cc1n[nH]c2c1C(C1C=CCCC1)C(C#N)C(=N)O2 (stereo not given) [2-[6-amino-5-cyano-4-(1-cyclohex-2-enyl)-2,4-dihydropyrano[2,3-c]pyrazol-3-yl]acetic acid methyl ester] | > 66.7 |
| COc1cccc(C2C(C(=O)c3cc4ccccc4o3)C(=O)C(=O)N2c2cc(C)on2)c1OC (stereo not given) [3-(1-benzofuran-2-carbonyl)-2-(2,3-dimethoxyphenyl)-4-hydroxy-1-(5-methyl-1,2-oxazol-3-yl)-2H-pyrrol-5-one] | > 66.7 |

More lines, now with the values ahead:

| IC50 [µM] | Structure (SMILES) |
| --- | --- |
| 5 | COC(=O)c1[nH]c(C)c(C(=O)C2C(=O)C(=O)N(CCN3CCOCC3)C2c2cccs2)c1C (stereo not given) |
| > 66.7 | CC1=NC(C)=C(C#N)C(c2ccc3ncccc3c2)C1C#N (stereo not given) |
| 27 | COc1cc(C2C(C(=O)c3cccs3)C(=O)C(=O)N2Cc2ccco2)cc(OC)c1OC (stereo not given) [1-(2-furanylmethyl)-4-hydroxy-3-[oxo(thiophen-2-yl)methyl]-2-(3,4,5-trimethoxyphenyl)-2H-pyrrol-5-one] |
| 35.2 | O=C1C(=O)N(Cc2ccco2)C(c2ccccc2)C1C(=O)c1cccs1 (stereo not given) [1-(2-furanylmethyl)-4-hydroxy-3-[oxo(thiophen-2-yl)methyl]-2-phenyl-2H-pyrrol-5-one] |
| 13.8 | CCCOc1ccc(C2C(C(=O)c3ccc(C)o3)C(=O)C(=O)N2CCCn2ccnc2)cc1 (stereo not given) [1-(3-imidazol-1-ylpropyl)-3-(5-methylfuran-2-yl)carbonyl-4-oxidanyl-2-(4-propoxyphenyl)-2H-pyrrol-5-one] |
| 40.5 | C=CCOc1ccc(C2C(C(=O)c3cccs3)C(=O)C(=O)N2c2nnc(C)s2)cc1 (stereo not given) [1-(5-methyl-1,3,4-thiadiazol-2-yl)-4-oxidanyl-2-(4-prop-2-enoxyphenyl)-3-thiophen-2-ylcarbonyl-2H-pyrrol-5-one] |
| 30.5 | O=C1C(=O)N(Cc2ccccc2)C(c2cccnc2)C1C(=O)c1ccco1 (stereo not given) [1-Benzyl-4-(furan-2-carbonyl)-3-hydroxy-5-pyridin-3-yl-1,5-dihydro-pyrrol-2-one] |
| 13.6 | O=C1C(=O)N(Cc2ccccc2)C(c2ccncc2)C1C(=O)c1ccco1 (stereo not given) [1-Benzyl-4-(furan-2-carbonyl)-3-hydroxy-5-pyridin-4-yl-1,5-dihydro-pyrrol-2-one] |
| 12.4 | O=C1C(=O)N(Cc2ccccc2)C(c2ccco2)C1C(=O)c1ccco1 (stereo not given) [1-Benzyl-4-(furan-2-carbonyl)-5-furan-2-yl-3-hydroxy-1,5-dihydro-pyrrol-2-one] |
| 21.4 | O=C1C(=O)N(CCOCCO)C(c2cccs2)C1C(=O)c1cccs1 (stereo not given) [1-[2-(2-hydroxyethyloxy)ethyl]-4-oxidanyl-2-thiophen-2-yl-3-thiophen-2-ylcarbonyl-2H-pyrrol-5-one] |
| 19 | COc1ccc(CCN2C(=O)C(=O)C(C(=O)c3ccco3)C2c2cccs2)cc1OC (stereo not given) [1-[2-(3,4-Dimethoxy-phenyl)-ethyl]-4-(furan-2-carbonyl)-3-hydroxy-5-thiophen-2-yl-1,5-dihydro-pyrrol-2-one] |
| 26.4 | COc1ccc(OC)c(C2C(C(=O)c3ccco3)C(=O)C(=O)N2CCCN2CCOCC2)c1 (stereo not given) [2-(2,5-dimethoxyphenyl)-3-(furan-2-carbonyl)-4-hydroxy-1-(3-morpholin-4-ylpropyl)-2H-pyrrol-5-one] |
| 36.9 | COc1ccc(C2C(C(=O)c3ccco3)C(=O)C(=O)N2CCc2ccccc2)cc1OC (stereo not given) [2-(3,4-dimethoxyphenyl)-3-(furan-2-carbonyl)-4-hydroxy-1-(2-phenylethyl)-2H-pyrrol-5-one] |
| 47.7 | COc1cc(C2C(C(=O)c3ccco3)C(=O)C(=O)N2c2cc(C)on2)cc(Br)c1O (stereo not given) [2-(3-bromanyl-5-methoxy-4-oxidanyl-phenyl)-3-(furan-2-ylcarbonyl)-1-(5-methyl-1,2-oxazol-3-yl)-4-oxidanyl-2H-pyrrol-5-one] |
| 31.2 | COCCCN1C(=O)C(=O)C(C(=O)c2ccco2)C1c1cccc(Br)c1 (stereo not given) [2-(3-bromophenyl)-3-(furan-2-carbonyl)-4-hydroxy-1-(3-methoxypropyl)-2H-pyrrol-5-one] |
| 30.4 | CCOc1cc(C2C(C(=O)c3ccc(C)o3)C(=O)C(=O)N2CCc2ccccc2)ccc1O (stereo not given) [2-(3-ethoxy-4-hydroxyphenyl)-4-hydroxy-3-(5-methylfuran-2-carbonyl)-1-(2-phenylethyl)-2H-pyrrol-5-one] |
| 19.7 | COc1cc(C2C(C(=O)c3ccc(C)o3)C(=O)C(=O)N2CCc2ccccc2)ccc1O (stereo not given) [2-(3-methoxy-4-oxidanyl-phenyl)-3-(5-methylfuran-2-yl)carbonyl-4-oxidanyl-1-(2-phenylethyl)-2H-pyrrol-5-one] |
| 14.7 | COCCCN1C(=O)C(=O)C(C(=O)c2ccco2)C1c1ccc(Br)cc1 (stereo not given) [2-(4-bromophenyl)-3-(furan-2-carbonyl)-4-hydroxy-1-(3-methoxypropyl)-2H-pyrrol-5-one] |
| 57.1 | CCOc1ccc(C2C(C(=O)c3cccs3)C(=O)C(=O)N2CCCn2ccnc2)cc1 (stereo not given) [2-(4-ethoxyphenyl)-1-(3-imidazol-1-ylpropyl)-4-oxidanyl-3-thiophen-2-ylcarbonyl-2H-pyrrol-5-one] |
| 9.9 | CCOc1ccc(C2C(C(=O)c3ccco3)C(=O)C(=O)N2CCCn2ccnc2)cc1 (stereo not given) [2-(4-ethoxyphenyl)-3-(furan-2-carbonyl)-4-hydroxy-1-(3-imidazol-1-ylpropyl)-2H-pyrrol-5-one] |
| 15.3 | CCOc1ccc(C2C(C(=O)c3ccco3)C(=O)C(=O)N2Cc2cccnc2)cc1 (stereo not given) [2-(4-ethoxyphenyl)-3-(furan-2-carbonyl)-4-hydroxy-1-(pyridin-3-ylmethyl)-2H-pyrrol-5-one] |
| 5.3 | CCCCc1c(O)n(-c2ccccc2)n(-c2ccccc2)c1=O [3,5-Dioxo-1,2-diphenyl-4-n-butylpyrazolidine] |
| 36.6 | COc1ccc(OC)c(C2C(C(=O)c3cc4ccccc4o3)C(=O)C(=O)N2c2cc(C)on2)c1 (stereo not given) [3-(1-benzofuran-2-carbonyl)-2-(2,5-dimethoxyphenyl)-4-hydroxy-1-(5-methyl-1,2-oxazol-3-yl)-2H-pyrrol-5-one] |
| 60.7 | O=C1C(=O)N(CCCN2CCOCC2)C(c2ccccn2)C1C(=O)c1cc2ccccc2o1 (stereo not given) [3-(1-benzofuran-2-carbonyl)-4-hydroxy-1-(3-morpholin-4-ylpropyl)-2-pyridin-2-yl-2H-pyrrol-5-one] |
